Source: ChEMBL document CHEMBL1151643, “The Identification of a Major Phytotoxic Component from Alternaria macrospora as -Dehydrocurvularin” (J Nat Prod, 1985)
Converted amounts (≈) assume the structure as drawn.

What was measured:
Format in all cases: organism-based
[1] = Phytotoxicity against Cucumis sativus protoplast after 3 hrs by fluorescein diacetate staining; settings: Cucumis sativus protoplasts, read-out: LD50
Gossypium hirsutum [2] = test: Phytotoxicity against Gossypium hirsutum assessed as appearance of lesions at 10 ug applied to adaxial surface of leaf for 12 hrs measured after 16 hrs; settings: in vivo, topical_or_ocular
Gossypium hirsutum [3] = test: Phytotoxicity against Gossypium hirsutum assessed as appearance of lesions at 0.5 ug applied to adaxial surface of leaf for 12 hrs measured after 4 days; settings: in vivo, topical_or_ocular

Compound | CC50 at 3 h [1] [µg/mL] | Activity (Gossypium hirsutum [2]) | Activity (Gossypium hirsutum [3])
CC1CCC/C=C/C(=O)c2c(O)cc(O)cc2CC(=O)O1 (centres undefined) | 15 (≈ 51.7 µM) | Toxic | Toxic
CC1CCCCCC(=O)c2c(O)cc(O)cc2CC(=O)O1 (centres undefined) [CURVULARIN] | 21 (≈ 71.8 µM) | – | –
